In US12370143B2, “Compound or salt thereof and lipid particles” (FUJIFILM Corporation, priority 2018, dated 2025):

Key:
[1] = Particle size of nucleic acid lipid particles (Luc2-siRNA); type: physicochemical; conditions: compound/DSPC/cholesterol/DMG-PEG2000 50/10/38.5/1.5
Method in brief: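 Lipid particles formed from oil phase (test lipid/DSPC/cholesterol/DMG-PEG2000, 50/10/38.5/1.5 molar, 20 mmol/L total in ethanol) micromixed 1:3 with Luc2-siRNA in pH 4 acetate buffer (19.7 μmol/L); siRNA/lipid 339 mol/mol, PBS-diluted and dialyzed. Size measured on ELS-Z2 dynamic light scattering.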

[2] = Encapsulation rate of siRNA in nucleic acid lipid particles (Luc2-siRNA); type: physicochemical; conditions: compound/DSPC/cholesterol/DMG-PEG2000 50/10/38.5/1.5
Method in brief: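 Encapsulation rate was calculated as (total − outer-phase siRNA)/total ×100. Total siRNA was quantified spectrophotometrically after lipid-dissolving ethanol precipitation, and unencapsulated siRNA by RiboGreen in TE (ex 485/em 535 nm). The particles were test lipid/DSPC/cholesterol/DMG-PEG2000 at 50/10/38.5/1.5, formed by microfluidic mixing with Luc2-siRNA at pH 4 and dialyzed against PBS.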

[3] = system: DMS273 cells constantly expressing Luc; experiment: Target reporter protein (Luc) knockdown in cell, reporter protein assay; type: cell-based; conditions: Homo sapiens, DMS-273; Luc2-siRNA lipid particles using the compound; siRNA 0.1 to 100 nmol/L; concentration at which Luc expression is knocked down to 50%; read-out: IC50
Method in brief: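 Nucleic acid lipid particles added at final 0.1 to 100 nmol/L to DMS273 human SCLC cells stably expressing Luc2, 24 hr exposure then 24 hr further culture after medium change. Luc quantified by Steady Glo luminescence after viable cell count; knockdown efficiency calculated and IC50 taken as concentration giving 50% Luc reduction.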

[4] = system: Factor VII (FVII) protein; experiment: Measurement of Factor VII (FVII) protein in mouse plasma after FVII-siRNA lipid particles; type: in vivo, C57BL6/J mice; conditions: 0.1 mg/kg caudal vein, plasma 24 hours after administration, PBS group = 100%
Method in brief: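 C57BL6/J mice (n=3) received FVII-siRNA nucleic acid lipid particles at 0.1 mg/kg into the tail vein; controls got PBS. Each value is the percentage of the PBS-group FVII level.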

[5] = Particle size of nucleic acid lipid particles (FVII-siRNA); type: physicochemical
Method in brief: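 Lipid particles formed by micromixing ethanolic ionizable lipid/DSPC/cholesterol/DMG-PEG2000 (50/10/38.5/1.5 mol) with siRNA in pH 4 acetate buffer (3:1 water:oil), diluted with PBS and dialysed against PBS.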

[6] = Nucleic acid encapsulation rate of nucleic acid lipid particles (FVII-siRNA); type: physicochemical
Method in brief: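 Total nucleic acid was measured by adding 30 μL of 3 mol/L sodium acetate and 9 μL of glycogen to 60 μL of FVII-siRNA lipid particles, then precipitating with 1.5 mL ethanol, centrifuging, air-drying, redissolving in water, and reading on a Nanodrop. Outer-phase nucleic acid came from a RiboGreen assay (ex 485 nm, em 535 nm) on samples diluted 10,000× in 1×TE. Encapsulation (%) = (total − outer)/total × 100.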

Row | SMILES | Particle size (nm) [1] | Nucleic acid encapsulation rate [2] | IC50 [3] | Relative amount of FVII protein (%) [4] | Particle size (nm) [5] | Nucleic acid encapsulation rate [6]
1 | CCCCCCCCC(=O)OCCN(CCOC(=O)OC(CCCCCC)CCCCCCCCC(=O)OCC(CCCC)CCCCCC)CCN(CC)CC (stereo not drawn) [Example 103, 2-Butyloctyl 3-ethyl-12-hexyl-6-(2-(nonanoyloxy)ethyl)-10-oxo-9,11-dioxa-3,6-diazahenicosan-21-oate] | 64.3 nm | 80% | 14 nM | 2% | 69.8 nm | 79%
2 | CCCCCCC(=O)OCCN(CCOC(=O)OC(CCCCCC)CCCCCCCCC(=O)OCC(CCCC)CCCCCC)CCN(CC)CC (stereo not drawn) [Example 104, 2-Butyloctyl 3-ethyl-6-(2-(heptanoyloxy)ethyl)-12-hexyl-10-oxo-9,11-dioxa-3,6-diazahenicosan-21-oate] | 76.6 nm | 81% | 4 nM | 1% | 85.8 nm | 69%
3 | CCCCCCC(CCCC)COC(=O)CCCCCCCCC(CCCCCC)OC(=O)OCCN(CCOC(=O)CCCCC)CCN(CC)CC (stereo not drawn) [Example 105, 2-Butyloctyl 3-ethyl-6-(2-(hexanoyloxy)ethyl)-12-hexyl-10-oxo-9,11-dioxa-3,6-diazahenicosan-21-oate] | 100 nm | 81% | 28 nM | 7% | 102.4 nm | 73%
4 | CCCCCCCCCCCC(=O)OCCN(CCOC(=O)OC(CCCCCC)CCCC(=O)OCC(CCCC)CCCCCC)CCN(CC)CC (stereo not drawn) [Example 106, 2-Butyloctyl 6-(2-(dodecanoyloxy)ethyl)-3-ethyl-12-hexyl-10-oxo-9,11-dioxa-3,6-diazahexadecan-16-oate] | 62.4 nm | 80% | 37 nM | 2% | 66.4 nm | 85%
5 | CCCCCCCCCC(=O)OCCN(CCOC(=O)OC(CCCCCC)CCCC(=O)OCC(CCCC)CCCCCC)CCN(CC)CC (stereo not drawn) [Example 107, 2-Butyloctyl 6-(2-(decanoyloxy)ethyl)-3-ethyl-12-hexyl-10-oxo-9,11-dioxa-3,6-diazahexadecan-16-oate] | 64.8 nm | 78% | 23 nM | 1% | 70.6 nm | 83%
6 | CCCCCCCCCCCC(=O)OCCN(CCOC(=O)OC(CCCCCC)CCCC(=O)OCC(CCCCCC)CCCCCCCC)CCN(CC)CC (stereo not drawn) [Example 109, 2-Hexyldecyl 6-(2-(dodecanoyloxy)ethyl)-3-ethyl-12-hexyl-10-oxo-9,11-dioxa-3,6-diazahexadecan-16-oate] | 65.7 nm | 91% | 26 nM | 3% | 62.7 nm | 86%
7 | CCCCCCCCCC(=O)OCCN(CCOC(=O)OC(CCCCCC)CCCC(=O)OCC(CCCCCC)CCCCCCCC)CCN(CC)CC (stereo not drawn) [Example 110, 2-Hexyldecyl 6-(2-(decanoyloxy)ethyl)-3-ethyl-12-hexyl-10-oxo-9,11-dioxa-3,6-diazahexadecan-16-oate] | 60.7 nm | 87% | 17 nM | 2% | 66.1 nm | 85%
8 | CCCCCCCCC(CCCCCC)COC(=O)CCCC(CCCCCC)OC(=O)OCCN(CCOC(=O)CCCCCCC)CCN(CC)CC (stereo not drawn) [Example 111, 2-Hexyldecyl 3-ethyl-12-hexyl-6-(2-(octanoyloxy)ethyl)-10-oxo-9,11-dioxa-3,6-diazahexadecan-16-oate] | 63.9 nm | 93% | 42 nM | 2% | 70.5 nm | 88%
9 | CCCCCCCCCCC(CCCCCCCC)COC(=O)CCCC(CCCCCC)OC(=O)OCCN(CCN(CC)CC)C(C)C (stereo not drawn) [Example 112, 2-Octyldodecyl 3-ethyl-12-hexyl-6-isopropyl-10-oxo-9,11-dioxa-3,6-diazahexadecan-16-oate] | 68.6 nm | 79% | 18 nM | 3% | 74.2 nm | 100%
10 | CCCCCCCCCCCCC(CCCCCCCCCC)COC(=O)CCCC(CCCCCC)OC(=O)OCCN(CCN(CC)CC)C(C)C (stereo not drawn) [Example 113, 2-Decyltetradecyl 3-ethyl-12-hexyl-6-isopropyl-10-oxo-9,11-dioxa-3,6-diazahexadecan-16-oate] | 67.8 nm | 82% | 21 nM | 4% | 66.1 nm | 100%
11 | CCCCCCCC/C=C\CCCCCCCC(=O)OCCN(CCOC(=O)OC(CCCCCC)CCCCCCCCC(=O)OCC(CCCCCC)CCCCCCCC)CCN(CC)CC (stereo not drawn) [Example 118, 2-Hexyldecyl 3-ethyl-12-hexyl-6-(2-(oleoyloxy)ethyl)-10-oxo-9,11-dioxa-3,6-diazahenicosan-21-oate] | 93.6 nm | 90% | 35 nM | 9% | 80.5 nm | 64%
12 | CCCCCCCC/C=C\CCCCCCCC(=O)OCCN(CCOC(=O)OC(CCCCCC)CCCC(=O)OCC(CCCC)CCCCCC)CCN(CC)CC (stereo not drawn) [Example 119, 2-Butyloctyl 3-ethyl-12-hexyl-6-(2-(oleoyloxy)ethyl)-10-oxo-9,11-dioxa-3,6-diazahexadecan-16-oate] | 67.8 nm | 89% | 31 nM | 5% | 66.3 nm | 69%
13 | CCCCCCCC/C=C\CCCCCCCC(=O)OCCN(CCOC(=O)OC(CCCCCC)CCCC(=O)OCC(CCCCCC)CCCCCCCC)CCN(CC)CC (stereo not drawn) [Example 120, 2-Hexyldecyl 3-ethyl-12-hexyl-6-(2-(oleoyloxy)ethyl)-10-oxo-9,11-dioxa-3,6-diazahexadecan-16-oate] | 66.5 nm | 90% | 27 nM | 6% | 68.1 nm | 66%
14 | CCCCCCCCCCC(CCCCCCCC)COC(=O)CCCCCCCCC(CCCCCC)OC(=O)OCCN(CCN(CC)CC)C(C)C (stereo not drawn) [Example 121, 2-Octyldodecyl 3-ethyl-12-hexyl-6-isopropyl-10-oxo-9,11-dioxa-3,6-diazahenicosan-21-oate] | 63.2 nm | 91% | 39 nM | 10% | 65.8 nm | 70%
